Laboratory results as given in PMC4424274, “Evaluation of [^11C]CB184 for imaging and quantification of TSPO overexpression in a rat model of herpes encephalitis” (European Journal of Nuclear Medicine and Molecular Imaging, 2015).
Read-outs that look alike come from different tables or passages of the source.

Key:
[1] = Plasma clearance and plasma metabolite analysis; assay type: in vivo, rat; settings: Wistar, rat, in vivo, iv, metabolite-corrected plasma, intravenous injection, rats
Protocol: PET scans with arterial blood sampling were performed in a different set of rats to generate input for pharmacokinetic modelling. For the arterial blood sampling a cannula was inserted into the femoral artery after induction of anaesthesia. The femoral vein was additionally cannulated for PET tracer injection. After cannulation, the rats were positioned in the camera and a transmission scan was acquired using a ^57Co point source. […] A 0.1 ml blood sample of was taken at 0, 5, 10, 15, 20, 30, 45, 60, 75, 90, 120, 180, 300, 450, 600, 900, 1,800 and 3,600 s after injection. A larger blood sample of 0.5 ml was taken at three time points (5, 15, 30 and/or 60 min) for metabolite analysis. After collection of each blood sample, heparinized saline was injected to prevent large changes in blood pressure. A 25 μl aliquot of whole blood was extracted from each sample for radioactivity measurement. The remainder of each sample was centrifuged at 13,000 rpm (15,996 g) for 8 min, and 25 μl plasma was taken for radioactivity measurement. The radioactivity in blood and plasma was measured with a gamma counter.
Radioactive metabolites in plasma were measured using the extra blood samples taken at three time points during each scan (5, 15, 30 and/or 60 min). After centrifugation and collection of the plasma sample for radioactive measurement, as described above, the remaining plasma was diluted with acetonitrile (1.5 times the amount of plasma) and vortex-mixed. The plasma suspension was centrifuged at 5,300 rpm (3,030 g) for 3 min, and divided into supernatant and pellet. […] Fractions of 30 s were collected and measured in the gamma counter.
The percentage of metabolites in plasma was calculated by fitting an exponential function to the values obtained from the HPLC analysis. The plasma values obtained from the blood samples during the PET scan were then corrected for the presence of these metabolites, and used together with the whole-blood curve for further analysis. Metabolite corrected plasma TACs were fitted for each individual rat using iterative nonlinear least-squares fitting to the biexponential equation: SUVt = Ae^−αt + Be^−βt, where SUVt is the plasma SUV at time t, α and β are the apparent distribution and elimination rate constants (s^−1), respectively, and A and B are the corresponding zero-time intercepts. The weighting factors were the reciprocals of the plasma SUV squared. Distribution and elimination half-lives (seconds) were calculated as the natural logarithm of 2 divided by α and β, respectively.

[2] = Radioactive metabolites of [^11C]CB184 in brain; assay type: in vivo, rat; settings: 30 min after injection
Protocol: To determine if radioactive metabolites of [^11C]CB184 entered the brain, the brain of one control rat and one HSE rat were isolated 30 min after injection and homogenized with a solution of ice-cold acetonitrile (3 ml). The homogenate was centrifuged at 6,000 rpm (3,461 g) for 10 min. The supernatant was then collected and processed by HPLC, as described above.

For CCCN(CCC)C(=O)Cc1c(-c2ccc(O[11CH3])cc2)nc2c(Cl)cc(Cl)cn12 [[^11C]CB184], the half-life ([1]; read-out: Distribution half-life in plasma (converted)) was 0.283 min, the half-life ([1]; read-out: Elimination half-life in plasma) was 44 ± 26 min and the “Percentage of intact tracer present in the brain” value [2] was “approximately 99%”.
